Source: patent publication US20090221687A1, “Tetracyclic Monoamine Reuptake Inhibitors for Treatment of Cns Diseases and Disorders” (priority 2005, published 2009)
Read-outs that look alike come from different tables or passages of the source.

Legend:
solubility = assay type: physicochemical; details: at 25° C. and ionic strength 0.15 M; read-out: solubility (S)
logP = assay type: physicochemical
pKa = assay type: physicochemical
[1] = target: T1, Norepinephrine Transporter (NET) (Homo sapiens, UniProt P23975); details: read-out: KD of the radioligand; human recombinant MDCK cells; historical value for the KD of the ligand; cited from earlier work
T1 construct: expressed in transfected cells; host or cells: MDCK cells

[2] = target: T2, Serotonin Transporter (SERT) (Homo sapiens, UniProt P31645); details: human recombinant HEK-293 cells, historical value for the KD of the ligand, cited from earlier work
T2 construct: expressed in transfected cells; host or cells: HEK-293 cells

mice = experiment: Tail-suspension test in mice: evaluation of antidepressive efficacy; assay type: in vivo; details: 10 mg/kg i.p., 30 min prior to testing, vehicle control 70%
Source text: The aim of this study was to evaluate potential antidepressant activity of selected compounds Formula I. The tail suspension test has been routinely employed to test potential antidepressant compounds (See H. G. Vogel and W. H. Vogel, Drug Discovery and Evaluation, Pharmacological Assays, Springer-Verlag, 1997, p 304-305). The percentage of drug-treated animals showing the passive behavior (i.e., the immobility that mice display after active and unsuccessful attempts to escape when suspended by the tail) is measured and compared with vehicle-treated control animals. The duration of immobility is recorded for about 5 minutes. Mice are considered immobile when they hang passively and completely motionless for at least 1 minute. Active antidepressants reduce the immobility.
Groups of 9 animals were treated with compounds encompassed by Formula I (0.1-10 mg/kg; s.c.), or fluoxetine (10 mg/kg i.p.), and one group of 15 animals was treated with the vehicle by s.c. injection as a […] control. All animals were treated for 30 min prior to testing. The percentage of drug-treated animals showing passive behavior was determined and compared with vehicle-treated controls. […]

T2 sequence (P31645 whole entry): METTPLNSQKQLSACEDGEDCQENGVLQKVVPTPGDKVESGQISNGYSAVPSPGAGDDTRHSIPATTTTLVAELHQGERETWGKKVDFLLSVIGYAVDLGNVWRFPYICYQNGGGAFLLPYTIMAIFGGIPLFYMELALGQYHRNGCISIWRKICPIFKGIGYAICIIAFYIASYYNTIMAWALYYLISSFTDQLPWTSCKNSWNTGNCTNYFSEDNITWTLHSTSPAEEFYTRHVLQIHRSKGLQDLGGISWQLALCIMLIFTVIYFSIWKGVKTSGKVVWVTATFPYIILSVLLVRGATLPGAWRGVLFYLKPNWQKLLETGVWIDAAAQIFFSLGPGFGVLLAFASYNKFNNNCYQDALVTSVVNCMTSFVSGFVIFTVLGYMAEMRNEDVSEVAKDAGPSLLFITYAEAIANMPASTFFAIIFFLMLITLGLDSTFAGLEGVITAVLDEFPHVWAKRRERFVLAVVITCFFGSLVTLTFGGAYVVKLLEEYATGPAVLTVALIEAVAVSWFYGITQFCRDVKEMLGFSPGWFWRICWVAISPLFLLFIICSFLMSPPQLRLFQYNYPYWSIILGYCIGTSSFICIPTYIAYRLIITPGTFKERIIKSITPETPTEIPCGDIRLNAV
T1 sequence (P23975 whole entry): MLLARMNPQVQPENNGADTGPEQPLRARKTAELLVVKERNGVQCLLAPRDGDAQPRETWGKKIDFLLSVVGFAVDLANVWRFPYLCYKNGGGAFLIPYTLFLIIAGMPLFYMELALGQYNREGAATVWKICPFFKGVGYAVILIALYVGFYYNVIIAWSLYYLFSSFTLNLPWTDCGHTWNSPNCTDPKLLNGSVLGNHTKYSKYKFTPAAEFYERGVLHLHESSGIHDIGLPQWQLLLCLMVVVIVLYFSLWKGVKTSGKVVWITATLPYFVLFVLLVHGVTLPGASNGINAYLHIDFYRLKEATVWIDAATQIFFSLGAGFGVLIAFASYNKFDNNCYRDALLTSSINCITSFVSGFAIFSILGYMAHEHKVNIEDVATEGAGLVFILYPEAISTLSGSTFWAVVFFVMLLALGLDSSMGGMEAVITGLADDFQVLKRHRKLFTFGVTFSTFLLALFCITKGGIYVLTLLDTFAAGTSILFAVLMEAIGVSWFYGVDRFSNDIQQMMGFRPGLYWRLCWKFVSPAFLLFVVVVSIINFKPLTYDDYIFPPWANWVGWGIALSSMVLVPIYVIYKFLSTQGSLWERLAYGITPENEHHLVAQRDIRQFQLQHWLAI

CCOC(=O)c1cc2c(s1)-c1cc(Cl)cc(OCCCN(C)C)c1Oc1ccccc1-2.O=C(O)CC(O)(CC(=O)O)C(=O)O [Example 2, 11-Chloro-9-(3-dimethylamino-propoxy)-8-oxa-1-thia-dibenzo[e,h]azulene-2-carboxylic acid ethyl ester citrate salt]
solubility (solubility): 167 mg/mL | logP (logP): 4.5 | pKa (pKa): 6.9

COC(=O)[C@H]1[C@@H](c2ccc(I)cc2)C[C@@H]2CC[C@H]1N2C [[^125I] RTI-55, 3 beta-(4-iodophenyl)tropan-2 beta-carboxylic acid methyl ester]
Kd [1]: 24 nM | Kd ([2]; read-out: KD1 of the radioligand): 0.17 nM | Kd ([2]; read-out: KD2 of the radioligand): 2200 nM

CNCCC(Oc1ccc(C(F)(F)F)cc1)c1ccccc1 (stereo not shown) [fluoxetine]
percentage of animals depressive (exhibiting passive behavior) (mice): 22%
